The METLIN SMRT retention time set (Domingo-Almenara et al. 2019)

Assay: gradient 5% acetonitrile 3 min, to 50% in 2 min, to 85% in 15 min, held 3 min, 100 µL/min
Conditions: column: Zorbax Extend-C18 2.1 x 50 mm; eluents: water / acetonitrile, 0.1% formic acid
Outline: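 Retention times of pure standards were taken from adduct peaks that were selected by computer and manually inspected. Over 3 months, mixtures of ~100 molecules were run by HPLC–quadrupole time-of-flight mass spectrometry in positive and negative ionization mode. The Zorbax Extend-C18 column (2.1 × 50 mm, 1.8 μm) ran at 100 μL/min in water and acetonitrile, each containing 0.1% formic acid, with 40 μL dead volume and 900 μL dwell volume.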

SMILES	RP-LC retention time
O=C(Cn1ncn2nc(-c3ccccc3)cc2c1=O)N1CCN(c2ccccn2)CC1	620 s
O=C(NCC1CCS(=O)(=O)C1)c1cccnc1 (stereo not given)	565 s
CCCNC(=O)C1CCN(c2ccc(SCC(=O)Nc3ccccc3OC)nn2)CC1	611 s
Cc1nc(C)c(C(=O)NCC2Cn3cccc3C(=O)N2C)s1 (stereo not given)	594 s
COc1cc(OC)c(NC(=O)NC2(c3nc(C)no3)CCCCC2)cc1Cl	858 s
Cn1c(=O)c2nc(S(=O)(=O)CCC(=O)Nc3ccc(Br)cc3)n(C)c2n(C)c1=O	779 s
O=C1COc2ccc(S(=O)(=O)N3CCC(C(=O)NCc4ccc(Cl)cc4)CC3)cc2N1	832 s
O=c1n(Cc2ccc(F)cc2Cl)nc2ccc(S(=O)(=O)N3CCCCCC3)cn12	1050 s
Cc1sc(C)c(S(=O)(=O)N2CCC3(CC2)OCCO3)c1-c1cc(C(F)(F)F)on1	1110 s
O=C(Cc1cccs1)NCC(=O)Nc1nc2ccccc2[nH]1	609 s
Cn1c(CNC(=O)C2CCC2)nc2c1CN(S(=O)(=O)Cc1ccc(Cl)cc1)CC2	586 s
Cc1cc(C)c2c(N3CCOCC3)nc(C(=O)NCc3cc(F)ccc3F)nc2n1	590 s
Cn1nc(C2CCCN(C(=O)c3ccco3)C2)n(C2CCCC2)c1=O (stereo not given)	701 s
O=C(Nc1ccccc1F)N1CCC(n2cnc3ccc(F)cc3c2=O)CC1	743 s
O=C(CSc1ccc(N2CCCC(C(=O)NC3CC3)C2)nn1)Nc1cc(F)cc(F)c1 (stereo not given)	680 s
CCn1cc(C)c(C(=O)O)c1CC(=O)Nc1cc(Cl)c(OC)cc1OC	901 s
O=C(NCCCO)C(=O)Nc1ccc(Cl)c(C(F)(F)F)c1	795 s
CCCS(=O)(=O)NCc1ccc2c(c1)CCN2C(=O)c1cccc(C)c1	899 s
O=c1cc[nH]c2c(C(F)(F)F)cccc12	609 s
COCCN1C(=O)Cc2ccccc2C1C(=O)NCc1ccc(C)o1 (stereo not given)	637 s
COc1ccc(C2CC(=O)N(c3ccc(Cl)cc3)C(=O)C2)cc1	942 s
Cc1ccc(C)c(-n2ccn(Cc3nc(-c4ccccc4)no3)c(=O)c2=O)c1	886 s
O=C(NCc1ccco1)c1scc(-c2ccc(F)cc2)c1-n1cccc1	1110 s

SMILES	RP-LC retention time
Cc1ccc(S(=O)(=O)N2CCC(C(=O)NCc3cscn3)CC2)c(C)c1	752 s
Cc1ccc2oc(C(=O)NCc3ccc4c(c3)OCO4)cc2n1	635 s
O=C(NCCc1ccccc1)C1CC(=O)N(CCc2c[nH]c3ccc(Cl)cc23)C1 (stereo not given)	809 s
O=C1CC(c2cc(F)cc(F)c2)Cc2nc(N3CCN(c4ccc(F)cc4)CC3)ncc21 (stereo not given)	719 s
Cc1ccc(NC(=O)Cn2c(C(C)C)nc3c(c2=O)CCN(Cc2ccccc2)C3)c(C)c1	705 s
CC1CCNC2C1NC(=O)C1CCCNC1N2C1CC1 (stereo not given)	679 s
COc1cccc(-c2cc3c(=O)n(CC(O)c4ccc(C(C)C)cc4)ccn3n2)c1 (stereo not given)	1060 s
CC(C)c1nc2c(c(=O)n1CC(=O)NCc1ccc(F)cc1)CCN(Cc1ccccc1)C2	683 s
COCCNC(=O)C1CCN(c2nccnc2Sc2cccc(C)c2)CC1	826 s
CCN1CCN(c2cc(C(=O)O)c3cc(NC(=O)C4CCC4)ccc3n2)CC1	565 s
O=C(Cc1ccc(NS(=O)(=O)c2ccc3c(c2)CCCC3)cc1)NC1CC1	766 s
O=C(NCc1ccccn1)C1(CCO)CCN(c2ncccn2)C1 (stereo not given)	522 s
CCCn1c(=O)c(C)nc2cc(-c3noc(-c4ccc(OC)cc4)n3)ccc21	1160 s
CCC(C)C(NC(=O)c1ccccc1)C(=O)Nc1nc2ccccc2[nH]1 (stereo not given)	718 s
CN(C)C(CNC(=O)Cn1c(=O)oc2ccccc21)c1cn(C)c2ccccc12 (stereo not given)	575 s
O=C(CN1CCc2ccccc2C1C(=O)N1CCCC1)Nc1cccc(Br)c1 (stereo not given)	921 s
O=C(Nc1ccc2c(c1)C(=O)Nc1ccccc1O2)c1nc2ccccc2s1	928 s
CCCn1cc(C(=O)Nc2ccc(OC)cc2)c(=O)c2ccc(C)nc21	1100 s
CNC(=O)c1noc([C@@H]2CC(F)(F)CN2CC2CC2)n1	724 s
Cc1cccc(-c2nc(CNC(=O)C(C)(C)C)no2)c1	826 s
Cc1cc(F)ccc1NS(=O)(=O)c1cc(-c2[nH]ncc2C(=O)N2CCCCC2)oc1C	770 s
CCOC(=O)c1nc(N2CCN(C(=O)c3ccco3)CC2)c2ccccc2n1	665 s
COC(=O)c1c(NC(C)c2cccnc2)c2cccc(Cl)c2[nH]c1=O (stereo not given)	572 s

SMILES	RP-LC retention time
CC(C)Oc1ccc(NC(=O)C2CCN(S(C)(=O)=O)c3cc(Cl)ccc3O2)cc1 (stereo not given)	1020 s
CC1CCCCN1CCNC(=O)C1CC(=O)N(c2ccc3c(c2)CCN3C(=O)C2CC2)C1 (stereo not given)	578 s
CC1CCN(C(=O)C2=CN(c3ccc(N(C)C)cc3)c3ccccc3S2(=O)=O)CC1	978 s
O=C1CCCCC(Cc2ccccc2)(C(=O)O)N1 (stereo not given)	652 s
CC(C)CNC(=O)N1CCC(c2noc(-c3ccccc3)n2)C1 (stereo not given)	846 s
O=C(Nc1cc(F)c2nc(N3CCOCC3)ccc2c1)c1cccs1	787 s
Cc1nc(-c2ccc(OC3CCN(C(=O)NCC(C)C)C3)cc2)no1 (stereo not given)	809 s
CCc1ccc(-c2cc(C(F)(F)F)on2)cc1S(=O)(=O)Nc1ccc(S(N)(=O)=O)cc1	947 s
Cc1nc2cc(-c3noc(-c4ccccc4Br)n3)ccc2n(C)c1=O	948 s
Cc1ccccc1NC(=O)N1CCc2nc(-c3ccccc3)ncc2C1	817 s
Cc1ccc(Cn2nc(C(=O)N3CCCc4cc(C)ccc43)ccc2=O)cc1	946 s
CCCCN(C)C(=O)Cn1ccn2nc(-c3ccc(F)cc3)c(CO)c2c1=O	765 s
CCOc1ccc(-c2ccc(=O)n(Cc3nc(-c4ccc(C)c(C)c4)no3)n2)cc1	576 s
CCOc1ccc(/C=C/c2nn3c(-c4cccnc4)nnc3s2)cc1	951 s
O=C(C1CCC1)N1CCCC(Cc2nncn2CC2CC2)C1 (stereo not given)	596 s
COc1ccc(-c2c(C)noc2NC(C)=O)cc1S(=O)(=O)Nc1ccc(Br)cc1F	817 s
O=C(CN1CC=C(c2cnn(-c3ccccc3)c2)CC1)NCc1ccco1	646 s
Cc1ccc(CNS(=O)(=O)c2cc3c(s2)CCN(C(=O)C2CC2)C3)cc1	847 s
CSc1nnc(NC(=O)c2cc(Cl)ccc2Cl)s1	808 s
CN(C1CCCCC1)S(=O)(=O)N1CCCC(C(=O)NCc2ccc3c(c2)OCO3)C1 (stereo not given)	954 s
Cc1ccc(C2NC(=O)N(C)C3=C2C(=O)N(C(CC(C)C)C(=O)N2CCOCC2)C3)c(C)c1 (stereo not given)	708 s
CCOc1ccc(CCNC(=O)Cn2ncc3ccccc32)cc1OCC	845 s
CCOc1cc(CNC(=O)C2=Cc3cc(OC)ccc3OC2)ccc1OC	873 s

SMILES	RP-LC retention time
COC(=O)C1=C(N)OC2=C(C(=O)CC(C)(C)C2)C1c1cccs1 (stereo not given)	821 s
Cn1cnc2c(C(=O)N3CCc4ccccc4C3)nn(-c3ccccc3)c2c1=O	831 s
Cc1cccc(-c2cc3n(n2)CCCN(C(=O)COc2ccc(Cl)cc2)C3)c1	1010 s
O=C(CN1C(=O)CSc2ccc(C(=O)N3CCCC3)cc21)NC1CCCCCCC1	760 s
COc1ccc(CC(=O)NCc2c(C)nc3sc(C)nn23)cc1Cl	629 s
CCC(=O)N1CCc2cc(-c3ccc(C(=O)NCCCN4CCCC4=O)cc3)ccc21	712 s
Cc1cccc(Cl)c1NC(=O)CSc1ccc(N2CCCC(C(=O)NC3CC3)C2)nn1 (stereo not given)	698 s
Cc1nc(N2CCN(CCO)CC2)nc2c1C(=O)CC(C)(C)C2	604 s
O=C(c1cccc(F)c1)N1CCC(n2c(-c3ccoc3)nc3cccnc32)C1 (stereo not given)	735 s
CC(C)C(=O)NCC(c1ccc(N(C)C)cc1)N1CCN(c2ccc(F)cc2)CC1 (stereo not given)	592 s
CC1=NS(=O)(=O)c2cccnc2N1c1ccc(Br)cc1	836 s
Cc1nc(N2CCOCC2)c2c(C(=O)N3CCCc4ccccc43)c(C)oc2n1	853 s
COc1ccccc1C(=O)NCCc1c[nH]c2ccc(Cl)cc12	640 s
O=C(NCCCN1CCOCC1)c1ccc2c(c1)NC(=O)C1CCCCN21 (stereo not given)	582 s
C[C@H](NC[C@H](O)CP(=O)(O)Cc1ccccc1)c1ccc(Cl)c(Cl)c1	722 s
NC(=O)C1CCN(C(=O)CCn2ccn3nc(-c4ccccc4)cc3c2=O)CC1	638 s
Cc1nc(N2CCOCC2)c2c(C(=O)Nc3ccccc3Cl)c(C)oc2n1	911 s
Cc1cccc(NC(=O)CN2C(=O)CC(C)S(=O)(=O)c3ccccc32)c1 (stereo not given)	768 s
O=C(NC1CCCC1)C1CCc2sc(C(=O)N3CCCC3)cc2C1 (stereo not given)	777 s
COCCCN(CC(=O)N1CCc2sccc2C1COc1ccc(F)cc1)C(C)=O (stereo not given)	802 s
CSc1cccc(NC(=O)N2CCc3nc[nH]c3C2)c1	590 s
